# Data: paper PMC5206724, “Insensitivity to pain induced by a potent selective closed-state Nav1.7 inhibitor” (Scientific Reports, 2017)
# Read-outs that look alike come from different tables or passages of the source.
# How the values were obtained:
# [1] = for maximum tolerated dose (MTD), IT: intrathecal; for lesions to the face and shoulders: rats; for abnormal proprioception of hind paws / abnormal stepping / flaccidity / hindlimb weakness: baseline 0/7
# hNav1.6 [2] = target: T1, hNav1.6 (Homo sapiens, UniProt Q9UQD0); experiment: cell-based; details: manual patch clamp
# hNav1.6 [3] = target: T1, hNav1.6; experiment: cell-based; details: QPatch; for Emax: read-out: Fitted Emax hNav1.6
# [4] = for mentation BAR (bright, alert and responsive) / normal corneal reflex / normal pinna reflex / normal placing stepping / scratching: 1.4 mg/100 μl perineural
# From the text: Rats ~250–300 g were placed under Isoflurane anesthesia (4% for induction, 2% for maintenance). A single hip and proximal hind-leg area were shaved and the injection area prepped with alternating applications of chlorhexidine 2% soln. and isopropyl alcohol 70%. A pelvic notch just distal to the greater trochanter was located with palpation and a starter hole was made through the dermis using a 20G hypodermic needle. A 22G nerve stimulating injection needle (ProBloc II, cat#HN3S-40, Halyard Health) connected to a peripheral nerve stimulation device (EZstim II model ES400, Life-Tech, Inc.) was placed into the starter hole. The nerve stimulator was set to 0.7 mA and the injection needle was gently advanced in a line parallel to the femur until localized dorsal or plantar flexion of the foot was observed. Generalized muscle twitching involving primary twitching on the quadriceps muscle was considered a negative response and the needle was carefully re-positioned until the appropriate localized foot flicking was observed. […] The device was increased back to 0.2 mA and if twitching was still observed, the 100 μL injection was given.
# hNav1.7 [5] = target: T2, hNav1.7 (Homo sapiens, UniProt Q15858); experiment: cell-based; details: QPatch; read-out: Fitted Emax hNav1.7
# T2 construct: host or cells: HEK293
# [6] = 0.5 μg/h IT infusion; in words
# Procedure: Efficacy was assessed in the hotplate and tail flick tests at various time points before pump implantation, during infusion and after discharge of the pumps.
# All peptides were formulated in DPBS (no Ca^2+ and Mg^2+) and stored at 4 °C until use. For bolus administration, 10 μl of compound solution or vehicle were injected via the IT catheter followed by 10 μl saline flush. […] The osmotic pump was implanted subcutaneously above the scapula. Animals were excluded from behavioral studies if any motor dysfunction was noted following IT injection, if baseline thresholds were >90% or <10% of the cut-off value in the tail flick, hotplate and Hargreaves test, if there was significant leak (>20 μl) while injecting formalin into the paw or any malfunction of the metal bands or formalin apparatus. Intrathecal compound was administered 15 min–1 h before commencing behavioral testing. Intrathecal-cannulated rats were trained on the behavioral apparatus for at least two days before baseline withdrawal latencies were taken. All behavioral tests were conducted by an investigator blinded to group and treatment.
# hNav1.4 [7] = target: T3, hNav1.4 (Homo sapiens, UniProt P35499); experiment: cell-based; details: QPatch; read-out: Fitted Emax hNav1.4
# hNav1.4 [8] = target: T3, hNav1.4; experiment: cell-based; details: manual patch clamp; read-out: Fitted Emax hNav1.4
# hNav1.2 [9] = target: T4, hNav1.2 (Homo sapiens, UniProt Q99250); experiment: cell-based; details: QPatch; read-out: Fitted Emax hNav1.2
# hNav1.1 [10] = target: T5, hNav1.1 (Homo sapiens, UniProt P35498); experiment: cell-based; details: manual patch clamp
# hNav1.2 [11] = target: T4, hNav1.2; experiment: cell-based; details: manual patch clamp; read-out: Fitted Emax hNav1.2
# hNav1.1 [12] = target: T5, hNav1.1; experiment: cell-based; details: QPatch; read-out: Fitted Emax hNav1.1
# hNav1.7 [13] = target: T2, hNav1.7; experiment: cell-based; details: manual patch clamp; read-out: Fitted Emax hNav1.7
# hNav1.3 = hNav1.3 (Homo sapiens, UniProt Q9NY46); experiment: cell-based; details: QPatch; read-out: Fitted Emax hNav1.3
# hNav1.5 = hNav1.5 (Homo sapiens, UniProt Q14524); experiment: cell-based; details: QPatch; read-out: Fitted Emax hNav1.5
# [14] = 0.5 μg/10 μl IT, 2 h post dose (1 h post formalin)
# [15] = 2.5 μg/10 μl IT, 2 h post dose (1 h post formalin)
# [16] = 2.5 μg/10 μl IT, first 2 animals not assessed
# [17] = 2 μg/10 μl IT, 30 min post dosing
# [18] = 2 μg/10 μl IT, 90 min post dosing
# [19] = 2 μg/10 μl IT, formalin study, in words
# T4 sequence (Q99250 whole entry): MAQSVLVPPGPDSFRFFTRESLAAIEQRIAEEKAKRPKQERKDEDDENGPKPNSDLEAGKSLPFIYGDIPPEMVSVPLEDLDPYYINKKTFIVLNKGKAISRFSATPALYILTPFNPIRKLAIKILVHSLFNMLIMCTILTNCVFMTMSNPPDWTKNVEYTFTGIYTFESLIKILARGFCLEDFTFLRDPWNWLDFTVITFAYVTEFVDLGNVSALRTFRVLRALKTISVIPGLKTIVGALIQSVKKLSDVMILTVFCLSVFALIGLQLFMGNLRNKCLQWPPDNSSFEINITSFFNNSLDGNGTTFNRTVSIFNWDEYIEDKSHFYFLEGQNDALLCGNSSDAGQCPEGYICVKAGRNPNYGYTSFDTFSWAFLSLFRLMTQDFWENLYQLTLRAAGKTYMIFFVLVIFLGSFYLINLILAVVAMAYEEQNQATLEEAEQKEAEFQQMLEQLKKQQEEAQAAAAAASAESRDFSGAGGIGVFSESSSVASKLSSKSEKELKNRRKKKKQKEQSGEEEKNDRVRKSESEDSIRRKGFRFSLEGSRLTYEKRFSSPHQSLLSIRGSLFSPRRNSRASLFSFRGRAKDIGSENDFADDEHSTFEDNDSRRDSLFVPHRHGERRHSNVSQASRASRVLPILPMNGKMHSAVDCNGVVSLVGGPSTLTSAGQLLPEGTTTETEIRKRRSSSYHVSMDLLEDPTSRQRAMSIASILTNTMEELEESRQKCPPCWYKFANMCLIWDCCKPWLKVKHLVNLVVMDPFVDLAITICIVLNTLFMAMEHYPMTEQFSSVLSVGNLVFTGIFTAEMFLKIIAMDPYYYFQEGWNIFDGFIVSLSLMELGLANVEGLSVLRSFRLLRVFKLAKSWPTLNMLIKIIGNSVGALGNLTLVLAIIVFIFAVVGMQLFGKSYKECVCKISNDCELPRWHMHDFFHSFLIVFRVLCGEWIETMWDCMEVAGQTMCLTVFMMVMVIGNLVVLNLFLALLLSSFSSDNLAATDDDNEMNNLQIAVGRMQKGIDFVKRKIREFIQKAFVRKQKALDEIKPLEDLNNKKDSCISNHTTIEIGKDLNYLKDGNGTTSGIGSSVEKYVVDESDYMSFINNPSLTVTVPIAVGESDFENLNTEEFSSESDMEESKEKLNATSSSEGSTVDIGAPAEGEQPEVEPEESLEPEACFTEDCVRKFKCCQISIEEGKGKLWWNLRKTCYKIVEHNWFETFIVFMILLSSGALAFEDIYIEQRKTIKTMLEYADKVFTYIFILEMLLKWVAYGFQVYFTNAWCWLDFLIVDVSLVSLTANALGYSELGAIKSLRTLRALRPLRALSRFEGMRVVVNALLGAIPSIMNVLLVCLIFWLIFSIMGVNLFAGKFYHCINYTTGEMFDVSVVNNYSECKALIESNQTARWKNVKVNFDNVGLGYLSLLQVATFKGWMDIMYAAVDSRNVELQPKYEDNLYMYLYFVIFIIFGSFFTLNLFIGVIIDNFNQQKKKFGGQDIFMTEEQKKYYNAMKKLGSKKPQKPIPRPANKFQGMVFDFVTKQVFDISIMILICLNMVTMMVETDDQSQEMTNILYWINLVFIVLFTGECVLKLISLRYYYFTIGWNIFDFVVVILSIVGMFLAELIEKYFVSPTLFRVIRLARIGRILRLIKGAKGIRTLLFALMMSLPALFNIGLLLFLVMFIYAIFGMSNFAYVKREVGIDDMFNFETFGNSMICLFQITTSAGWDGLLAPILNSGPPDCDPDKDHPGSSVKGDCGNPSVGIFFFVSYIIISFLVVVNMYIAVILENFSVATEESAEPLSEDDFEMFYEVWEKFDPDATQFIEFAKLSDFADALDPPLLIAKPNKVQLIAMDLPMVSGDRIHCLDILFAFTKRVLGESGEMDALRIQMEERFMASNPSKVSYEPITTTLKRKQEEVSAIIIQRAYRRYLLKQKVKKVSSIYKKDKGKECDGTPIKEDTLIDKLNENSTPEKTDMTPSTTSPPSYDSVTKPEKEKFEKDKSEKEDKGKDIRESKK
# T1 sequence (Q9UQD0 whole entry): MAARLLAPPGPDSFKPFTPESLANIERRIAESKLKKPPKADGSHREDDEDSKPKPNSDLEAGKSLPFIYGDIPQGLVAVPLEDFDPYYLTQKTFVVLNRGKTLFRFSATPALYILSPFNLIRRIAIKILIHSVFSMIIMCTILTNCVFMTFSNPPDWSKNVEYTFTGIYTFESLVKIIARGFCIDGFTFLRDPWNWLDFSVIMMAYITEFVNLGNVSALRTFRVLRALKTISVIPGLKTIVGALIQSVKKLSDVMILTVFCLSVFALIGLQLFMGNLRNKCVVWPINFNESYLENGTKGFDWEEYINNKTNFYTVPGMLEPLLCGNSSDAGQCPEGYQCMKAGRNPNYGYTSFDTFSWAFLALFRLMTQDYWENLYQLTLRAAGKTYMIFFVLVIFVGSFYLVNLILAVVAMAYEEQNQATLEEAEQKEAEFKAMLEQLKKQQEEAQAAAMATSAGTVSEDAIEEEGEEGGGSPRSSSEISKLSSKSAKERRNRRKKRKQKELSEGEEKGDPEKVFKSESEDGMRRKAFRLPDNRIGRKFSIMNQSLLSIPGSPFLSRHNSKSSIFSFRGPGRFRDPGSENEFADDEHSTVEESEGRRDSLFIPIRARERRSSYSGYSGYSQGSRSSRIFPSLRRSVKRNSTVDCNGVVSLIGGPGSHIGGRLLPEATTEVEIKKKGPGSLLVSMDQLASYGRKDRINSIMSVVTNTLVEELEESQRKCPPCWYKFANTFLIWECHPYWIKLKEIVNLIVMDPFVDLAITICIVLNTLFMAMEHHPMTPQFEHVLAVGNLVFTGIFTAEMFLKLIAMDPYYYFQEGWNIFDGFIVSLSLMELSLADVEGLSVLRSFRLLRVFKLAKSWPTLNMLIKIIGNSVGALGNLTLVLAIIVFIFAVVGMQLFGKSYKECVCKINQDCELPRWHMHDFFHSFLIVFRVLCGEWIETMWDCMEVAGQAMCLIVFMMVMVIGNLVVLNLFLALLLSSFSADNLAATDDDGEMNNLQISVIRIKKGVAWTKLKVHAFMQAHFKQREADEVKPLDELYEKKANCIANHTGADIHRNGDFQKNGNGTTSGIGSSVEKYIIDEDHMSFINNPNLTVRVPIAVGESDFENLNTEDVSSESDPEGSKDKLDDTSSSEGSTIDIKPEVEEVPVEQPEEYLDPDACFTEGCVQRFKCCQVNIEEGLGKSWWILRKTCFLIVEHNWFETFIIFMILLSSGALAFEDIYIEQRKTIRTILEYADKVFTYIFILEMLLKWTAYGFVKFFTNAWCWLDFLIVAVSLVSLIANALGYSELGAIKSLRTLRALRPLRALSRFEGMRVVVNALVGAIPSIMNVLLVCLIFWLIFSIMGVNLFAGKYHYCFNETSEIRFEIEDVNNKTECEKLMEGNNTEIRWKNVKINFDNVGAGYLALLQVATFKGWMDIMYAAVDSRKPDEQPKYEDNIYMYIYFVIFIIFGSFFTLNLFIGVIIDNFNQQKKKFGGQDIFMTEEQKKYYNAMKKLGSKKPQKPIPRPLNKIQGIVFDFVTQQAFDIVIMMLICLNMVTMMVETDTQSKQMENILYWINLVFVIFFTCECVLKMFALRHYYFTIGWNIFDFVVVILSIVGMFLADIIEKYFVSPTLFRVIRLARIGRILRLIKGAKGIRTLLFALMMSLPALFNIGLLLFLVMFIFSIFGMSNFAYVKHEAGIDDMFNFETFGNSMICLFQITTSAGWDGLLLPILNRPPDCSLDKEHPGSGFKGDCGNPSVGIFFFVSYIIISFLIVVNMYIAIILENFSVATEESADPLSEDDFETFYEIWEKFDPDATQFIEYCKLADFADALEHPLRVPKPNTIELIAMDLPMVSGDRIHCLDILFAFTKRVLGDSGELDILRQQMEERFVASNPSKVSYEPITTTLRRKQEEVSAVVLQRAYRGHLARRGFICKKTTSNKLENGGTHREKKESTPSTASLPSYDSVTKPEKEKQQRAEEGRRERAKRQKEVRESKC
smiles,measurement,setting,value
CSCC[C@@H]1NC(=O)CNC(=O)[C@H](CCC(=O)O)NC(=O)[C@@H]2CSSC[C@H](NC(=O)[C@H](Cc3ccc(O)cc3)NC(=O)[C@@H]3CCCN3C(=O)CN)C(=O)N[C@@H](CCC(N)=O)C(=O)N[C@@H](CCCCN)C(=O)N[C@@H](Cc3c[nH]c4ccccc34)C(=O)N[C@@H](CCSC)C(=O)N[C@@H](CCC(N)=O)C(=O)N[C@@H]([C@@H](C)O)C(=O)N[C@H]3CSSC[C@H](NC(=O)[C@H](C(C)C)NC1=O)C(=O)N[C@@H](CCCNC(=N)N)C(=O)N[C@@H](CC(C)C)C(=O)N[C@@H](Cc1c[nH]c4ccccc14)C(=O)N[C@H](C(=O)N[C@@H](CCCCN)C(=O)N[C@@H](CCCCN)C(=O)N[C@@H](CCCCN)C(=O)N[C@@H](CC(C)C)C(=O)N[C@@H](CC(C)C)C(=O)O)CSSC[C@H](NC(=O)[C@H](CCCCN)NC(=O)[C@H](CCCNC(=N)N)NC(=O)[C@H](CCC(=O)O)NC(=O)[C@H](CO)NC(=O)[C@H](CC(=O)O)NC3=O)C(=O)N2 [JNJ63955918],gross motor normal,"[1]; 0.5 μg/10 μl IT, 1 h post dose",6/6
same,normal proprioception,"[1]; 0.5 μg/10 μl IT, 1 h post dose",6/6
same,gross motor normal,[1]; [14],6/6
same,normal proprioception,[1]; [14],6/6
same,abrasions at euthanasia,"[1]; 0.5 μg/10 μl IT, first 2 animals not assessed",0/4
same,gross motor normal,"[1]; 2.5 μg/10 μl IT, 1 h post dose",6/6
same,normal proprioception,"[1]; 2.5 μg/10 μl IT, 1 h post dose",6/6
same,gross motor normal,[1]; [15],6/6
same,normal proprioception,[1]; [15],6/6
same,excessive scratching leading to upper body skin abrasion (animals affected),"[1]; 2.5 μg/10 μl IT, blinded repeat study",2 of 4
same,abrasions at euthanasia,[1]; [16],2/4
same,scratching,[1]; [16],2/4
same,duration of muscle weakness,[1]; 7.5 μg/10 μl IT,< 1 h
same,incidence of mild reversible muscle weakness,[1]; 7.5 μg/10 μl IT,approximately 50%
same,scabbing,"[1]; IT dose range finding, in words",Scabbing on face/neck/shoulders was observed in some rats
same,motor impairment,"[1]; IT doses above 7.5 μg/10 μl, in words",Dose related motor impairment became more obvious and the duration of the effects was longer
same,tolerability,"[1]; IT doses up to 5 μg/10 μl, in words",well tolerated with no detectable abnormal behaviors
same,in-vivo safety window,"[1]; rat, in vivo",7–16 fold
same,therapeutic margin vs ziconotide,"[1]; rat, in vivo",greater than that of ziconotide
same,"maximum tolerated dose (MTD), IT",[1]; rat,5 μg/10 μl
same,lesions to the face and shoulders,[1]; in words,often noticed
same,IC50,"hNav1.6 [2]; holding −120 mV, test −10 mV, 0.1% BSA, 22–24 °C, read-out: pIC50 hNav1.6 (converted)",1000 nM
same,Emax,hNav1.6 [2]; read-out: Fitted Emax hNav1.6,100%
same,Emax,hNav1.6 [3],100%
same,scratching / behavioral abnormalities,"[4]; 1.4 mg/100 μl peri-sciatic, in words",Scratching was observed in some animals but no other behavioral abnormalities were noted
same,"mentation BAR (bright, alert and responsive)",[4]; 15 min post dose,7/9
same,normal corneal reflex,[4]; 15 min post dose,9/9
same,normal pinna reflex,[4]; 15 min post dose,9/9
same,normal placing stepping,[4]; 15 min post dose,9/9
same,scratching,[4]; 15 min post dose,0/9
same,"mentation BAR (bright, alert and responsive)",[4]; 30 min post dose,4/9
same,normal corneal reflex,[4]; 30 min post dose,9/9
same,normal pinna reflex,[4]; 30 min post dose,9/9
same,normal placing stepping,[4]; 30 min post dose,9/9
same,scratching,[4]; 30 min post dose,1/9
same,"mentation BAR (bright, alert and responsive)",[4]; 60 min post dose,5/9
same,normal corneal reflex,[4]; 60 min post dose,9/9
same,normal pinna reflex,[4]; 60 min post dose,9/9
same,normal placing stepping,[4]; 60 min post dose,9/9
same,scratching,[4]; 60 min post dose,2/9
same,"mentation BAR (bright, alert and responsive)",[4]; 120 min post dose,6/9
same,normal corneal reflex,[4]; 120 min post dose,9/9
same,normal pinna reflex,[4]; 120 min post dose,9/9
same,normal placing stepping,[4]; 120 min post dose,9/9
same,scratching,[4]; 120 min post dose,2/9
same,"mentation BAR (bright, alert and responsive)",[4]; 240 min post dose,8/9
same,normal corneal reflex,[4]; 240 min post dose,9/9
same,normal pinna reflex,[4]; 240 min post dose,9/9
same,normal placing stepping,[4]; 240 min post dose,9/9
same,scratching,[4]; 240 min post dose,1/9
same,"mentation BAR (bright, alert and responsive)",[4]; 24 h post dose,9/9
same,normal corneal reflex,[4]; 24 h post dose,9/9
same,normal pinna reflex,[4]; 24 h post dose,9/9
same,normal placing stepping,[4]; 24 h post dose,9/9
same,gross motor deficits,"[4]; 2.5 mg/100 μl peri-sciatic, in words",absence of any gross motor deficits
same,"tolerability, peri-sciatic","[4]; up to 2.5 mg/100 μl, in words",well tolerated
same,Emax,hNav1.7 [5],79.1 ± 3.4%
same,body weight gain vs vehicle,[6],gained weight at the same rate
same,motor or other behavioral abnormalities,[6],No motor or other behavioral abnormalities were observed
same,scabbing,[6],"Some scabbing on the face, shoulders, hind limbs and tail"
same,Emax,hNav1.4 [7],100%
same,Emax,hNav1.4 [8],100%
same,Emax,hNav1.2 [9],27.6 ± 7.3%
same,IC50,"hNav1.1 [10]; holding −120 mV, test −10 mV, 0.1% BSA, 22–24 °C, read-out: pIC50 hNav1.1 (converted)",10 µM
same,Emax,hNav1.1 [10]; read-out: Fitted Emax hNav1.1,100%
same,Emax,hNav1.2 [11],50 ± 18.5%
same,Emax,hNav1.1 [12],100%
same,Emax,hNav1.7 [13],94.8 ± 3.3%
"CSCC[C@@H]1NC(=O)CNC(=O)[C@H](CCC(=O)O)NC(=O)[C@@H]2CSSC[C@H](NC(=O)[C@@H](N)Cc3ccc(O)cc3)C(=O)N[C@@H](CCC(N)=O)C(=O)N[C@@H](CCCCN)C(=O)N[C@@H](Cc3c[nH]c4ccccc34)C(=O)N[C@@H](CCSC)C(=O)N[C@@H](Cc3c[nH]c4ccccc34)C(=O)N[C@@H]([C@@H](C)O)C(=O)N[C@H]3CSSC[C@H](NC(=O)[C@H](C(C)C)NC1=O)C(=O)N[C@@H](CCCNC(=N)N)C(=O)N[C@@H](CC(C)C)C(=O)N[C@@H](Cc1c[nH]c4ccccc14)C(=O)N[C@H](C(=O)N[C@@H](CCCCN)C(=O)N[C@@H](CCCCN)C(=O)N[C@@H](CCCCN)C(=O)N[C@@H](CC(C)C)C(=O)N[C@@H](Cc1c[nH]c4ccccc14)C(=O)O)CSSC[C@H](NC(=O)[C@H](CCCCN)NC(=O)[C@H](CCCNC(=N)N)NC(=O)[C@H](CCC(=O)O)NC(=O)[C@H](CO)NC(=O)[C@H](CC(=O)O)NC3=O)C(=O)N2 [ProTX-II, reference compound]",Emax,hNav1.3,100%
same,abnormal proprioception of hind paws,[1]; [17],2/7
same,abnormal stepping,[1]; [17],2/7
same,flaccidity,[1]; [17],1/7
same,hindlimb weakness,[1]; [17],2/7
same,abnormal proprioception of hind paws,[1]; [18],0/7
same,abnormal stepping,[1]; [18],0/7
same,flaccidity,[1]; [18],0/7
same,hindlimb weakness,[1]; [18],2/7
same,abrasions and scabs,[1]; [19],"Abrasions and scabs to the face, neck, and shoulders were observed in some"
same,effect on motor function,[1]; [19],without any severe effect on motor function
same,motor effects just above efficacious dose,"[1]; rat, IT, in words",exerts profound motor effects at doses just above the efficacious analgesic dose
same,motor effects above maximum tolerated IT dose,"[1]; rat, higher than 2 μg/10 μl, in words","dose-related motor abnormalities that progressed from transient rear weakness, to paralysis of both the hind and forelimbs, slowing of respiration and death"
same,"maximum tolerated dose (MTD), IT",[1]; rat,2 μg/10 μl
same,lesions to the face and shoulders,[1]; in words,often noticed
same,IC50,"hNav1.6 [3]; CHO cells, holding −60 mV, 0.1% BSA, ~22 °C, ± SEM, read-out: pIC50 hNav1.6 (converted)",31.6 nM
same,Emax,hNav1.6 [3],100%
same,ambulation,"[4]; 250 μg/100 μl peri-sciatic, in words",No effect upon ambulation
same,"tolerability, peri-sciatic","[4]; 250 μg/100 μl, in words",well tolerated at the highest dose tested
same,Emax,hNav1.5,100%
same,Emax,hNav1.4 [7],100%
same,Emax,hNav1.2 [9],100%
same,Emax,hNav1.1 [12],100%
